Reference: US8318731B2, “Pyrrolopyrimidines” (Janssen Pharmaceutica NV, priority 2007, dated 2012)

How the values were obtained:
U87-MG = assay: Cellular proliferation assay (Alamar blue), U87-MG; type: cell-based; settings: Homo sapiens, U-87 MG; U87-MG cells; 10% FCS; 72 h with compound; Alamar blue 6 h; read-out: pIC50 U87MG (converted)
Summary of the method: (§1)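 Resazurin-based Alamar blue fluorescence (544/590 nm) measured viable cell number after 72 h compound exposure, following 24 h compound-free seeding, with 10% FCS, 37° C, 5% CO2. Dye incubation lasted 24 h for PC3 and A2780, 6 h for U87-MG, 4 h for HCT-116; results relative to untreated controls.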

H1299 = assay: Cellular proliferation assay (Alamar blue), H1299; type: cell-based; settings: Homo sapiens, NCI-H1299, H1299 cells; 10% FCS; 72 h with compound; Alamar blue 4 h; read-out: pIC50 H1299 (converted)
Summary of the method: (§2)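 Viable cell number is determined by Alamar blue conversion after cells are treated with compound for 72 hours, following 24 hours of growth without compound in 10% FCS. The effect is calculated against control cells.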

PLK4 (h) = molecular target: T1, PLK4 (h) (Homo sapiens, UniProt O00444); assay: PLK-4 human kinase scintillation proximity assay (SPA); type: biochemical; settings: 1 μM ATP, 60 minutes at r.t., read-out: PLK4 pIC50 (converted)
T1 sequence (O00444 1-970): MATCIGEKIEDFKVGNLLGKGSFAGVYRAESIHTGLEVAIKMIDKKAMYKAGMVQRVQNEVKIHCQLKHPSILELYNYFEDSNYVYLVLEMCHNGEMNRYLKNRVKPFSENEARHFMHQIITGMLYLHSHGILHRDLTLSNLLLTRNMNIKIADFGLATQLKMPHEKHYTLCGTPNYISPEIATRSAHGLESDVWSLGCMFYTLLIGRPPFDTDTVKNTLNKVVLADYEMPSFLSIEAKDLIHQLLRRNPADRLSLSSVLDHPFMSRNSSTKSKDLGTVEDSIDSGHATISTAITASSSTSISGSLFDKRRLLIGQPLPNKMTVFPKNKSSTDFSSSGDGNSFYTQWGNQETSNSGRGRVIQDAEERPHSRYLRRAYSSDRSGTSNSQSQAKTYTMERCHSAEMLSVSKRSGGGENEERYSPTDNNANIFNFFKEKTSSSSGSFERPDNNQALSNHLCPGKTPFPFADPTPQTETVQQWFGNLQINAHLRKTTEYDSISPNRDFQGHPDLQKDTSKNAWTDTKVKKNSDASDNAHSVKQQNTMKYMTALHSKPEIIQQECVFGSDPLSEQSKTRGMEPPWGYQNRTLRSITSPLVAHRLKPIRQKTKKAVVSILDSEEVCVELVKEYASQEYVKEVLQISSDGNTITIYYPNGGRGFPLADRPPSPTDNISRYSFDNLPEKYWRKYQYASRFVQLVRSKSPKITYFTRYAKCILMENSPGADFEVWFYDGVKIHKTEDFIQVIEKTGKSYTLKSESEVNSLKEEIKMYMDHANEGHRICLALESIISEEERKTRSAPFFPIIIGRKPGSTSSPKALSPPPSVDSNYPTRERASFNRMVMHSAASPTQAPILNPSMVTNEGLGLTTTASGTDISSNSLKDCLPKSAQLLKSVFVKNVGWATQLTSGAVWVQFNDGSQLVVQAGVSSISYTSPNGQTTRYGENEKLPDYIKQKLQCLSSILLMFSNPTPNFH
Summary of the method: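 Scintillation proximity read-out: EDTA-stopped reactions were captured on streptavidin SPA beads after PLK4 (19 μg/ml) had phosphorylated 10 μM biotin-peptide for 60 min at room temperature, using 1 μM ATP spiked with 2 nM 33P-ATP in pH 8.0 HEPES buffer.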

HCT-116 = assay: Cellular proliferation assay (Alamar blue), HCT-116; type: cell-based; settings: Homo sapiens; HCT-116 cells; 10% FCS; 72 h with compound; Alamar blue 4 h; read-out: pIC50 HCT-116 (converted)
Summary of the method: as §1

PC3 = assay: Cellular proliferation assay (Alamar blue), PC3; type: cell-based; settings: Homo sapiens, PC-3, PC-3 cells; 10% FCS; 72 h with compound; Alamar blue 24 h; read-out: pIC50 PC-3 (converted)
Summary of the method: as §1

A2780 = assay: Cellular proliferation assay (Alamar blue), A2780; type: cell-based; settings: Homo sapiens, A2780, A2780 cells; 10% FCS; 72 h with compound; Alamar blue 24 h; read-out: pIC50 A2780 (converted)
Summary of the method: as §1

MDA-MB-231 = assay: Cellular proliferation assay (Alamar blue), MDA-MB-231; type: cell-based; settings: Homo sapiens, MDA-MB-231, MDA-MB-231 cells; 10% FCS; 72 h with compound; Alamar blue 24 h; read-out: pIC50 MDA/MB231 (converted)
Summary of the method: as §2

| SMILES | IC50 (U87-MG) | IC50 (H1299) | IC50 (PLK4 (h)) | IC50 (HCT-116) | IC50 (PC3) | IC50 (A2780) | IC50 (MDA-MB-231) |
| --- | --- | --- | --- | --- | --- | --- | --- |
| CN1CCN(C)C(=O)CCCOc2cc(ccc2N2CCOCC2)Nc2ncnc3[nH]cc(c23)C1 [Compound 40] | > 10 µM | > 10 µM | 1.26 µM | > 10 µM | > 10 µM | > 10 µM | > 10 µM |
| COc1ccc(NC(=O)COc2ccc3cc2OCC(=O)N(C)CCCN(C)Cc2c[nH]c4ncnc(c24)N3)cc1 [Compound 129] | 0.794 µM | 0.2 µM | 0.0501 µM | 0.0794 µM | 1 µM | 0.0631 µM | 1.26 µM |
| CN1CCCN(C)C(=O)COc2cc(ccc2OCC2CC2)Nc2ncnc3[nH]cc(c23)C1 [Compound 68] | 1.58 µM | 1.58 µM | 0.0398 µM | 0.631 µM | 3.16 µM | 0.631 µM | 2 µM |
| COCCCOc1ccc2cc1OCC(=O)N(C)CCCN(C)Cc1c[nH]c3ncnc(c13)N2 [Compound 132] | 2 µM | 3.98 µM | 0.0794 µM | 1.58 µM | 3.98 µM | 1.26 µM | 3.98 µM |
| CCOc1ccc2cc1OCC(=O)N(C)CCCN(C)Cc1c[nH]c3ncnc(c13)N2 [Compound 63] | 2 µM | 2 µM | 0.0794 µM | 0.631 µM | 2.51 µM | 0.501 µM | 3.16 µM |
| CN1CCN(C)C(=O)CCc2cc(ccc2N2CCOCC2)Nc2ncnc3[nH]cc(c23)C1 [Compound 45] | > 10 µM | > 10 µM | 3.16 µM | > 10 µM | > 10 µM | > 10 µM | > 10 µM |
| COc1ccc2cc1OCCNC(=O)CN(C)Cc1c[nH]c3ncnc(c13)N2 [Compound 22] | 2.51 µM | 3.16 µM | 1.26 µM | 2 µM | 6.31 µM | 2 µM | 10 µM |
| COc1cc2cc(c1OC)OCCCCC(=O)N(C)CCN(C)Cc1c[nH]c3ncnc(c13)N2 [Compound 87] | > 10 µM | > 10 µM | > 10 µM | > 10 µM | > 10 µM | > 10 µM | > 10 µM |
| CN1CCCN(C)C(=O)COc2cc(ccc2N2CCCC2)Nc2ncnc3[nH]cc(c23)C1 [Compound 82] | 1.58 µM | 2 µM | 0.0794 µM | 1.26 µM | 3.16 µM | 2 µM | 7.94 µM |
| O=C1CCCCOc2cccc(c2)Nc2ncnc3[nH]cc(c23)CN2CCN1CC2 [Compound 86] | > 10 µM | > 10 µM | > 10 µM | > 10 µM | > 10 µM | > 10 µM | > 10 µM |
| COc1ccc2cc1OCCCCC(=O)N(C)CCCN(C)Cc1c[nH]c3ncnc(c13)N2 [Compound 16] | > 10 µM | > 10 µM | 0.126 µM | > 10 µM | > 10 µM | > 10 µM | > 10 µM |
| COc1ccc(NC(=O)Nc2ccc3cc2OCC(=O)N(C)CCCN(C)Cc2c[nH]c4ncnc(c24)N3)cc1 [Compound 15] | 2 µM | > 10 µM | 0.0251 µM | 0.794 µM | > 10 µM | 0.794 µM | > 10 µM |
| COc1ccc2cc1OCC(=O)NCN(C)CCCc1c[nH]c3ncnc(c13)N2 [Compound 33] | > 10 µM | > 10 µM | 5.01 µM | > 10 µM | > 10 µM | > 10 µM | > 10 µM |
| COc1ccc2cc1OCCCCC(=O)N1CCN(CC1)Cc1c[nH]c3ncnc(c13)N2 [Compound 103] | > 10 µM | > 10 µM | 0.631 µM | > 10 µM | > 10 µM | > 10 µM | > 10 µM |
| COCCN1CC(=O)N(C)CCCc2c[nH]c3ncnc(c23)Nc2ccc(OC)c(c2)C1 [Compound 36] | > 10 µM | > 10 µM | > 10 µM | > 10 µM | > 10 µM | > 10 µM | > 10 µM |
| COCCN1CC(=O)N(C)CCCc2c[nH]c3ncnc(c23)Nc2cc(c(OC)c(OC)c2)C1 [Compound 124] | > 10 µM | > 10 µM | > 10 µM | > 10 µM | > 10 µM | > 10 µM | > 10 µM |
| CN1CCCN(C)C(=O)COc2cc(ccc2OCC(=O)NC2CCCCC2)Nc2ncnc3[nH]cc(c23)C1 [Compound 118] | 3.16 µM | 1.58 µM | 0.0251 µM | 0.631 µM | 6.31 µM | 0.398 µM | 6.31 µM |
| CN1CCCN(C)C(=O)COc2cc(ccc2OCCSc2nccn2C)Nc2ncnc3[nH]cc(c23)C1 [Compound 143] | 3.16 µM | 6.31 µM | 0.0631 µM | 1.58 µM | 5.01 µM | 1.26 µM | 5.01 µM |
| COc1ccc2cc1OCC(=O)N[C@H](CO)CN(C)CCCc1c[nH]c3ncnc(c13)N2 [Compound 3] | > 10 µM | > 10 µM | 1.58 µM | > 10 µM | > 10 µM | > 10 µM | > 10 µM |
| COCCOc1ccc2cc1OCC(=O)N(C)CCCN(C)Cc1c[nH]c3ncnc(c13)N2 [Compound 119] | 1.58 µM | 1 µM | 0.0251 µM | 0.316 µM | 2.51 µM | 0.316 µM | 2 µM |
| COc1ccc2cc1CN(C)CCC(=O)N(C)CCCc1c[nH]c3ncnc(c13)N2 [Compound 4] | > 10 µM | > 10 µM | > 10 µM | > 10 µM | > 10 µM | > 10 µM | > 10 µM |
| O=C1CCCOc2cccc(c2)Nc2ncnc3[nH]cc(c23)CN2CCN1CC2 [Compound 107] | > 10 µM | > 10 µM | 6.31 µM | > 10 µM | > 10 µM | > 10 µM | > 10 µM |
| COc1cc2cc(c1OC)CN(C)CC(=O)N(C)CCCc1c[nH]c3ncnc(c13)N2 [Compound 72] | > 10 µM | > 10 µM | > 10 µM | > 10 µM | > 10 µM | > 10 µM | > 10 µM |
| COc1ccc2cc1OCCCNC(=O)CN(C)Cc1c[nH]c3ncnc(c13)N2 [Compound 6] | 1.58 µM | 1.58 µM | 0.501 µM | 1.26 µM | 3.98 µM | 1.58 µM | 5.01 µM |
| COCCOc1ccc2cc1OCC(=O)N(C)CCCNCc1c[nH]c3ncnc(c13)N2 [Compound 138] | > 10 µM | 5.01 µM | 0.0251 µM | 1 µM | > 10 µM | 0.631 µM | > 10 µM |
